In US8946302B2, “Selective sigma-1 receptor ligands” (Wisconsin Alumni Research Foundation, priority 2008, dated 2015):
“And” between values parts separate entries of the source, which are not always exact repeats. Equal entries are not always repeated. Where two headings read alike, the source gives them in different places.

Key:
sigma-1 receptor [1] = biological target: T1, sigma-1 receptor (Cavia porcellus, UniProt Q60492); experiment: Affinity for the sigma-1 receptor (Table 3); type: binding; design: from tissue
[2] = biological target: T2, purified sigma-1 receptor (Cavia porcellus, UniProt Q60492); experiment: Competitive displacement of [3H]-(+)-pentazocine at the pure sigma-1 receptor; type: binding, guinea pig; settings: read-out: Ki Pure σ-1R
T2 construct: made in house; host or cells: E. coli BL21 DE3
Procedure: A guinea pig sigma-1 receptor was purified as previously described (Ramachandran et al., Protein Expr. Purif., 2007. 51(2): 283-92). The pMal P2X plasmid (New England Biolabs) encoding the guinea pig sigma-1 receptor on the C-terminus of the E. coli Maltose Binding Protein was used for purification. The sigma-1 receptor on its C-terminus carried a hexa-histadine epitope tag. Protein was expressed in the E. coli strain BL21 DE3 (Novagen) with 0.6 mM IPTG. The E. coli pellet was sonicated and centrifuged at 100,000 g for 1 hour to separate the particulate and soluble fractions. The particulate fraction was extracted with Triton X-100, centrifuged and the extract was loaded onto an amylose resin (New England Biolabs, E-802). After washing the resin with buffer containing 0.5% Triton X-100, the MBP-sigma-1 receptor fusion protein was eluted with buffer containing 10 mM maltose.
The MBP-sigma-1-receptor fusion protein was cleaved with Factor Xa protease (Novagen) at room temperature for 24-48 hours and the cleavage was monitored with SDS-polyacrylamide gel electrophoresis. The sigma-1 receptor from the Factor Xa cleavage was purified with a HIS-Select HC Nickel affinity gel (Sigma-Aldrich P6611) in a batch format. The resin was washed with buffer containing 0.5% Triton X-100 detergent and the beads were separated by a brief centrifugation at 4000 rpm in a microcentrifuge. After washing to remove MBP, the pure sigma-1 receptor was eluted in buffer containing 250 mM imidazole.
To remove the undigested MBP-sigma-1 receptor fusion protein that is carried over in the Ni^2+ purification, the eluate from the Ni^2+ purification was incubated with Anti-MBP antibody conjugated to agarose (Vector Laboratories, Burlingame, Calif.) at 4° C. for 18-24 hours. The beads were separated by centrifugation and the supernatant contained the pure sigma-1 receptor.
Competition ligand binding to the pure sigma-1 receptor was performed as previously described. […] After incubation at 30° C. for 60 minutes, the reaction was terminated by rapid filtration through glass fiber filters (Whatman GF/B), using a Brandel cell harvester (Brandel, Gaithersburg, Md.). The glass fiber filters were pre-soaked in 0.5% polyethyleneimine (PEI) for at least 1 hour at room temperature (˜23° C.). Filters were washed 4 times with 4 mL of ice-cold 50 mM Tris-C1, pH 8.0. Radioactivity was quantified by liquid scintillation counting using a Packard model 1600 CA scintillation counter.

σ-2 Sites = biological target: T3, σ-2 Sites (Rattus norvegicus, UniProt Q5U3Y7); experiment: σ-2 sites radioligand binding, rat liver membranes (Table 2)
T3 construct: from tissue
T3 sequence (Q5U3Y7 1-176): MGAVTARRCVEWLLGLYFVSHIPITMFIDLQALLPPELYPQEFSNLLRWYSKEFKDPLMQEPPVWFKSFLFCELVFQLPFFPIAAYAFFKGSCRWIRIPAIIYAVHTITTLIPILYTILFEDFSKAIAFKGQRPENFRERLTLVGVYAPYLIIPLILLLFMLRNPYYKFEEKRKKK

tumor cell lines = experiment: Cytotoxicity assays, various tumor cell lines (statements in words); type: cell-based, human
Procedure: Because sigma-1 receptors are overexpressed in numerous tumor cell lines, which include breast cancer, lung carcinoma, renal carcinoma, colon carcinoma, sarcoma, brain tumors, melanoma, glioblastoma, neuroblastoma, and prostate cancer, the ability of the compounds to inhibit the growth of various tumor cell lines were tested.
(§1) Multi-plex cytotoxicity assays were performed by the Keck-UWCCC Small Molecule Screening Facility (Madison, Wis.). Specific methodology can be found online at http://hts.wisc.edu/Resources.htm#mpa.

σ-1 Sites = biological target: T4, σ-1 Sites (Cavia porcellus, UniProt Q60492); experiment: σ-1 sites radioligand binding, guinea pig liver membranes (Table 2); settings: for Ki: guinea pig liver membranes; for σ-1 selectivity σ-2 Ki/σ-1 Ki: σ-2 rat liver / σ-1 guinea pig liver membranes
T4 construct: from tissue
Procedure: (§2) Assays for sigma-1 were performed using 10 nM (+)-[^3H]pentazocine in guinea pig liver homogenates (25 μg/well) incubated at 30° C. for 1 hour with several concentrations of competing ligands. After incubation, membranes were harvested on a 0.5% PEI-treated Whatman GF/B filters using a Brandel Cell Harvester. (+)-[^3H]pentazocine binding was determined by liquid scintillation counting. […] Serial concentrations of the compounds evaluated were added to the reactions for 45 minutes at 30° C. and the samples vacuum filtered through 0.5% polyethyleneimine (PEI) treated Whatman GF/B as described above to measure displacement of the radioligands from the sigma receptor subtypes.

sigma-2 receptor = biological target: T5, sigma-2 receptor (Rattus norvegicus, UniProt Q5U3Y7); experiment: Sigma-2 competitive binding, [3H]-DTG with (+)-pentazocine, rat liver membranes (Example 6); design: from tissue; host or cells: rat liver membranes; settings: rat liver membranes, n = 3; read-out: Sigma2 KD values
T5 sequence (Q5U3Y7 1-176): T3 sequence (Q5U3Y7 1-176)
Procedure: (§3) Minced frozen rat livers or guinea pig livers (65 g) were thawed in 100 mL homogenization buffer (10 mM phosphate buffer pH 7.4 containing 0.32M sucrose, 1 M MgSO4, 0.5 M EGTA, 1 mM phenylmethylsulphonyl fluoride (PMSF), 10 μg/mlleupeptin, 1 μg/ml pepstatin A, 10 μg/ml p-toluenesulfonyl-L-arginine methyl ester (TAME) and then homogenized on ice with a Brinkman polytron homogenizer (setting 6, 4 bursts of 10 second each) followed by a glass homogenizer (Teflon pestle by 6 slow passes at 3,000 rpm). The homogenized tissues were then centrifuged at 17,000 g for 10 minutes. The supernatants were re-centrifuged at 100,000 g for 1 hour. The microsomal pellets were resuspended in homogenization buffer, snap frozen with dry ice-ethanol, and stored at −80° C. at a final protein concentration of 20 mg/mL.
as §2

sigma-1 receptor [3] = biological target: T1, sigma-1 receptor; experiment: Sigma-1 competitive binding, (+)-[3H]pentazocine, guinea pig liver membranes (Example 6); design: from tissue; host or cells: guinea pig liver membranes; settings: for Kd: guinea pig liver membranes, n = 3, read-out: Sigma 1 KD values;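 on all read-outs here: compounds tested over serial concentrations, 45 min incubation at 30 °C with membrane preparations, read-out is displacement of bound radioligand from the receptor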
Procedure: as §3, §2

Du145 = experiment: Cytotoxicity assay Du145; type: cell-based; settings: Homo sapiens, DU-145, HU Prostate, read-out: IC50 (SE) growth inhibition
Procedure: as §1

HT-29 = experiment: Cytotoxicity assay HT-29; type: cell-based; settings: Homo sapiens, HU Colorectal, read-out: IC50 (SE) growth inhibition
Procedure: as §1

A549 = experiment: Cytotoxicity assay A549; type: cell-based; settings: Homo sapiens, HU lung, read-out: IC50 (SE) growth inhibition
Procedure: as §1

HCT-45 = experiment: Cytotoxicity assay HCT-45; type: cell-based; settings: Homo sapiens, HU Colorectal, read-out: IC50 (SE) growth inhibition
Procedure: as §1

MCF7 = experiment: Cytotoxicity assay MCF7; type: cell-based; settings: Homo sapiens, HU Breast, read-out: IC50 (SE) growth inhibition
Procedure: as §1

SF268 = experiment: Cytotoxicity assay SF268; type: cell-based; settings: Homo sapiens, SF-268, HU CNS, read-out: IC50 (SE) growth inhibition
Procedure: as §1

HI299 = experiment: Cytotoxicity assay HI299; type: cell-based; settings: Homo sapiens, HU Lung, read-out: IC50 (SE) growth inhibition
Procedure: as §1

NCI-H460 = experiment: Cytotoxicity assay NCI-H460; type: cell-based; settings: Homo sapiens, HU lung, read-out: IC50 (SE) growth inhibition
Procedure: as §1

SKOV-3 = experiment: Cytotoxicity assay SKOV-3; type: cell-based; settings: Homo sapiens, SK-OV-3, HU Ovarian, read-out: IC50 (SE) growth inhibition
Procedure: as §1

MCP10A = experiment: Cytotoxicity assay MCP10A; type: cell-based; settings: Homo sapiens, HU Breast, read-out: IC50 (SE) growth inhibition
Procedure: as §1

MB-MDA-231 = experiment: Cytotoxicity assay MB-MDA-231; type: cell-based; settings: Homo sapiens, HU Breast, read-out: IC50 (SE) growth inhibition
Procedure: as §1

T2 sequence (Q60492 whole entry): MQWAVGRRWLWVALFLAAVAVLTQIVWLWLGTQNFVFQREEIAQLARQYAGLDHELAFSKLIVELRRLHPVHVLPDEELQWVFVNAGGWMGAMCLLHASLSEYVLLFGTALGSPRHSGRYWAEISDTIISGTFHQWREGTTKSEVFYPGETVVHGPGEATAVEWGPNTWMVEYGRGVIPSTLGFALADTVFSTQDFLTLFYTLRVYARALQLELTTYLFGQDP
T1 sequence (Q60492 whole entry): as above
T4 sequence (Q60492 whole entry): as above

In the case of `CCCCCCCCCCCCNCCCc1ccccc1` [UC3], the Kd (sigma-1 receptor [1]; read-out: Sigma-1 KD) is reported as 0.092 µM.
Work on `CCCNCCc1ccc(F)cc1` [HD7] yielded a Kd (sigma-1 receptor [1]) of 0.091 µM.
`CCCCCCCNCCCc1ccc([N+](=O)[O-])cc1` [Compound 1d, N-(3-(4-Nitrophenyl)propyl)heptane-1-amine] showed a Ki ([2]; [3H]-(+)-pentazocine) of 0.0075 ± 0.0012 µM, a Ki (σ-2 Sites) of 0.011 µM and a Kd (sigma-1 receptor [1]; read-out: Sigma-1 KD) of 0.0057 µM. The “cytotoxicity / tumor cell growth inhibition” value (tumor cell lines) was “remarkable activity for inhibiting tumor growth”, the Ki (σ-1 Sites) was 0.01 µM and the “σ-1 selectivity σ-2 Ki/σ-1 Ki” value (σ-1 Sites) was 1.
In the case of `NCCCc1ccccc1` [Compound 2], the Kd (sigma-2 receptor) is reported as 270 µM, the “Ratio (σ2/σ1)” value (sigma-1 receptor [3]) is reported as 3.92 and the Kd (sigma-1 receptor [3]) is reported as 68.9 µM.
`CCCN(CCCc1ccc([N+](=O)[O-])cc1)CCc1ccc(N)cc1` [Compound 18, N-Propyl-N-4-aminophenylethyl-3-(4-nitrophenyl)propylamine] showed an IC50 (Du145) of over 100 µM, an IC50 (HT-29) of over 100 µM and an IC50 (A549) of over 100 µM. It also gave a Kd (sigma-2 receptor) of 0.0836 µM, an IC50 (HCT-45) of over 100 µM and an IC50 (MCF7) of 86.1 µM. The IC50 (SF268) was over 100 µM, the “Ratio (σ2/σ1)” value (sigma-1 receptor [3]) was 13.93 ^ and the IC50 (HI299) was over 100 µM. The IC50 (NCI-H460) was over 100 µM, the IC50 (SKOV-3) was over 100 µM and the IC50 (MCP10A) was over 100 µM. The IC50 (MB-MDA-231) was over 100 µM.
`CCCCNCc1ccc([N+](=O)[O-])cc1` [Compound 16, N-Butyl-N-4-nitrobenzylamine] was tested, and the Kd (sigma-2 receptor) was 1.68 µM, the “Ratio (σ2/σ1)” value (sigma-1 receptor [3]) was 1.4622 and the Kd (sigma-1 receptor [3]) was 1.15 µM.
Work on `CCCCCCCCCCCCNCCCc1ccc([N+](=O)[O-])cc1` [Compound 1f, N-(3-(4-Nitrophenyl)propyl)dodecan-1-amine] yielded a Ki ([2]; [3H]-(+)-pentazocine) of 0.0318 µM, a Ki (σ-2 Sites) of 2.38 µM and a Kd (sigma-1 receptor [1]; read-out: Sigma-1 KD) of 0.00039 µM. For the same compound, the “cytotoxicity / tumor cell growth inhibition” value (tumor cell lines) was “remarkable activity for inhibiting tumor growth” and the Ki (σ-1 Sites) was 5.17 µM.
`CCCCN(CCCC)CCCc1ccc(F)cc1` [Compound 10, N,N-Dibutyl-3-(4-fluorophenyl)propylamine] showed an IC50 (Du145) of over 100 µM, an IC50 (HT-29) of over 100 µM and an IC50 (A549) of over 100 µM. The Kd (sigma-2 receptor) was 0.685 µM, the IC50 (HCT-45) was over 100 µM and the IC50 (MCF7) was over 100 µM. For the same compound, the IC50 (SF268) was over 100 µM, the “Ratio (σ2/σ1)” value (sigma-1 receptor [3]) was 38.7 and the Kd (sigma-1 receptor [3]) was 0.0177 µM. It also gave an IC50 (HI299) of over 100 µM, an IC50 (NCI-H460) of over 100 µM and an IC50 (SKOV-3) of 56.2 µM. The IC50 (MCP10A) was over 100 µM and the IC50 (MB-MDA-231) was over 100 µM.
Compound `CCCN(CCC)CCc1c[nH]c2ccccc12` [DPT, reference compound] has a Kd (sigma-1 receptor [1]) of 1.6 µM.
With `CCCCCCN` [Hexylamine] the Ki ([2]; [3H]-(+)-pentazocine 10 nM) was 37.5 µM and 37 µM.
For `CCCCNCCCc1ccc([N+](=O)[O-])cc1` [Compound 1b, N-(3-(4-Nitrophenyl)propyl)butan-1-amine], the Ki ([2]; [3H]-(+)-pentazocine) was 0.02 µM, the Ki (σ-2 Sites) was 0.022 µM and the Ki (σ-1 Sites) was 0.003 µM. For the same compound, the “σ-1 selectivity σ-2 Ki/σ-1 Ki” value (σ-1 Sites) was 7.
For `CCCCN(CCCC)CCCC` [Compound 6], the Kd (sigma-2 receptor) was 44.8 µM, the “Ratio (σ2/σ1)” value (sigma-1 receptor [3]) was 6.41 and the Kd (sigma-1 receptor [3]) was 7 µM.
`CCCCCCCCN` [Octylamine] was tested, and the Ki ([2]; [3H]-(+)-pentazocine 10 nM) was 5.6 µM and 6 µM.
For `CCCN(Cc1ccc([N+](=O)[O-])cc1)C(=O)CCc1ccc(F)cc1` [Compound 13, N-Propyl-N-(4-nitro-benzyl)-3-(4-fluorophenyl)propionamide], the Kd (sigma-2 receptor) was 236 µM.
`CCCCCCCCN(CCCCCCCC)CCCc1ccc(F)cc1` [Compound 8, N,N-Dioctyl-3-(4-fluorophenyl)propylamine] was tested, and the Kd (sigma-2 receptor) was 1.65 µM and the “Ratio (σ2/σ1)” value (sigma-1 receptor [3]) was 2.49.
With `CCCCCCCNCCCc1ccccc1` [UC1] the Kd (sigma-1 receptor [1]; read-out: Sigma-1 KD) was 0.012 µM.
